Experiments:
[1] = target: T1, adenosine kinase of T. b. rhodesiense (TbrAK) (Trypanosoma brucei rhodesiense, UniProt Q584S0); assay: Radiometric assay for EC50 determination (TbrAK hyperactivation); format: biochemical; conditions: 12 µM [2-3H]adenosine, 167 µM ATP, 0.88 nM TbrAK, 37°C
T1 sequence (Q584S0 1-345): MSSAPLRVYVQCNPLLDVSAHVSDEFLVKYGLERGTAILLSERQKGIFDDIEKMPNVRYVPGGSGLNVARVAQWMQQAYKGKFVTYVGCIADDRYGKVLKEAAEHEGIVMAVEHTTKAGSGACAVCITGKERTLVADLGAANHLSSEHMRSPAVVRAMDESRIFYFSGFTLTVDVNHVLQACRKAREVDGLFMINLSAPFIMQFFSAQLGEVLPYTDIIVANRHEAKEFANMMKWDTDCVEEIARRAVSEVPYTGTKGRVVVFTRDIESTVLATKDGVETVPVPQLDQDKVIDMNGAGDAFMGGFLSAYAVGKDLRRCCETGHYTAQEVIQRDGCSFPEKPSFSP
Experimental: Radiometric assay for EC50 determination
The EC50 for hyperactivation of TbrAK by compound 1 was obtained by monitoring the conversion of [2-3H]adenosine to [2-3H]AMP. Reactions were executed at 37°C in a final volume of 30 µl containing 20 mM Hepes, 50 mM NaCl, 167 µM ATP, 167 µM MgCl2, 0.33 % BSA, and 1.0 % DMSO. The concentration of [2-3H]adenosine was kept constant at 12 µM while compound 1 was varied in the range of 0-100 µM. The reaction was started by the addition of 1 ng (0.88 nM) TbrAK. The reactions were incubated and 5 µl aliquots were spotted on 5 mm diameter DE81-cellulose disks placed in a 96-well plate to stop the reaction. The disks were washed 3 times with 250 µl 5 mM ammonium formate, once with H2O, transferred to scintillation vials, and then soaked with 2 ml of the displacement solution (100 mM HCl, 200 mM KCl) and gently shaken for 1 minute to elute the phosphorylated product. After adding 10 ml scintillation liquid, the samples were counted. For comparative reasons the activity recorded in absence of compound was set to 100 %. The mean of four independent measurements is reported.

[2] = target: T2, glycosomal T. b. rhodesiense glyceraldehyde-3-phosphate dehydrogenase (TbrGAPDH) (Trypanosoma brucei brucei, UniProt P22512); assay: Thermal stability assay (CD spectroscopy) regarding TbrGAPDH; format: binding; conditions: compound at 50 µM
T2 construct: made in house; host or cells: E. coli BL21(DE3), pET28a
T2 sequence (P22512 whole entry): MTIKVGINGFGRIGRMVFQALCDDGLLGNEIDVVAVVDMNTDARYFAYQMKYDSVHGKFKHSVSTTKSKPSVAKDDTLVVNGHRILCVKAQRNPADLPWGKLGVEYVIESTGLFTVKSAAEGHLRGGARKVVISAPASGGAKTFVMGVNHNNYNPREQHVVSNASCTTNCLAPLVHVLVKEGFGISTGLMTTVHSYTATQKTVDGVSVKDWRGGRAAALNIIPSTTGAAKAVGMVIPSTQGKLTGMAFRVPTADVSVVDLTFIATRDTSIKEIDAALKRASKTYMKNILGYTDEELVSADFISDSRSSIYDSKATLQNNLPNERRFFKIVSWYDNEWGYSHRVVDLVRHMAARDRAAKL
Experimental: Thermal unfolding of TbrGAPDH and TbrAK was studied by circular dichroism (CD) spectroscopy at 220 nm within the temperature range of 20–90°C using a heating rate of 40°C/h. […]
All measurements were done in a 0.5 mm cell and contained 0.1 %
DMSO and 2.5 mM EDTA to prevent enzyme activity. Thermal stability was analyzed in presence of 500 µM substrate to record the maximum stability limit, whereas compounds 1 to 5 were used at a concentration of 50 µM, being the highest concentration achievable for compound 2, to allow comparison of all compounds at the same concentration. For evaluation of the CD spectra, the buffer spectrum was subtracted from the protein CD spectrum. All thermal unfolding curves were fitted to a two-state model that had been published recently. The mean of three independent experiments are reported. […]

[3] = target: T1, adenosine kinase of T. b. rhodesiense (TbrAK); assay: Radiometric assay for kinetic study of TbrAK; conditions: in presence of compound 1 (33.4 µM), 167 µM ATP
Experimental: Kinetic constants for adenosine phosphorylation by TbrAK were obtained by monitoring the conversion of [2-^3H]adenosine to [2-^3H]AMP. Reactions were executed at 37°C in a final volume of 30 µl containing 20 mM Hepes (pH 7.0), 50 mM NaCl, 167 µM ATP, 167 µM MgCl2, 0.34% BSA, and 0.34% DMSO. […] The concentration of [2-^3H]adenosine (0.1–12 µM) was chosen in consideration of Michaelis–Menten conditions for initial velocity measurements. The reaction was started by the addition of 1 ng (0.88 nM) TbrAK. The reactions were incubated and 5 µl aliquots were spotted on 5 mm diameter DE81-cellulose disks placed in a 96-well plate to stop the reaction. The disks were washed 3 times with 250 µl 5 mM ammonium formate, once with H2O, transferred to scintillation vials, and then soaked with 2 ml of a displacement solution (100 mM HCl, 200 mM KCl) and gently shaken for 1 minute to elute the phosphorylated products [9]. After adding 10 ml scintillation liquid, the samples were counted in scintillation counter. Km and Vmax with respect to adenosine and Ki for adenosine substrate-inhibition in absence and presence of compound 1 were determined by non-linear fit of the data to the substrate-inhibition model described elsewhere [10].

c1ccc(Oc2ccc(-c3cc(N4CCOCC4)[nH]n3)cc2)cc1 [compound 1, 4-[5-(4-phenoxyphenyl)-2H-pyrazol-3-yl]morpholine]
EC50 [1]: 38 ± 12 nM
Tm of TbrGAPDH [2]: 46.8 ± 0.1 °C
Ki adenosine (substrate-inhibition) [3]: 78400 ± 2200 nM
Vmax [3]: 14.20 ± 0.14 nM/min
kcat [3]: 0.27 ± 0.01 s⁻¹

— article PMC2724708, “Adenosine Kinase of T. b. rhodesiense Identified as the Putative Target of 4-[5-(4-phenoxyphenyl)-2H-pyrazol-3-yl]morpholine Using Chemical Proteomics” (PLoS Neglected Tropical Diseases, 2009)
